Patent US11932657B2, “Heterocyclic compound” (priority 2018, dated 2024)

Key:
[1] = target: T1, aryl hydrocarbon receptor (AhR) (Homo sapiens, UniProt P35869); test: AhR reporter gene assay (aryl hydrocarbon receptor antagonist activity, DRE-Luc HepG2 cells, TCDD-stimulated luciferase); assay type: cell-based
T1 construct: DRE-Luc HepG2 cells subcultured in a 225 cm^2 flask; endogenous in cells; host or cells: HepG2 (ATCC), stably transfected with the reporter hCYP1A1/pGL4.27 (DRE-Luc HepG2)
T1 sequence (P35869 11-848): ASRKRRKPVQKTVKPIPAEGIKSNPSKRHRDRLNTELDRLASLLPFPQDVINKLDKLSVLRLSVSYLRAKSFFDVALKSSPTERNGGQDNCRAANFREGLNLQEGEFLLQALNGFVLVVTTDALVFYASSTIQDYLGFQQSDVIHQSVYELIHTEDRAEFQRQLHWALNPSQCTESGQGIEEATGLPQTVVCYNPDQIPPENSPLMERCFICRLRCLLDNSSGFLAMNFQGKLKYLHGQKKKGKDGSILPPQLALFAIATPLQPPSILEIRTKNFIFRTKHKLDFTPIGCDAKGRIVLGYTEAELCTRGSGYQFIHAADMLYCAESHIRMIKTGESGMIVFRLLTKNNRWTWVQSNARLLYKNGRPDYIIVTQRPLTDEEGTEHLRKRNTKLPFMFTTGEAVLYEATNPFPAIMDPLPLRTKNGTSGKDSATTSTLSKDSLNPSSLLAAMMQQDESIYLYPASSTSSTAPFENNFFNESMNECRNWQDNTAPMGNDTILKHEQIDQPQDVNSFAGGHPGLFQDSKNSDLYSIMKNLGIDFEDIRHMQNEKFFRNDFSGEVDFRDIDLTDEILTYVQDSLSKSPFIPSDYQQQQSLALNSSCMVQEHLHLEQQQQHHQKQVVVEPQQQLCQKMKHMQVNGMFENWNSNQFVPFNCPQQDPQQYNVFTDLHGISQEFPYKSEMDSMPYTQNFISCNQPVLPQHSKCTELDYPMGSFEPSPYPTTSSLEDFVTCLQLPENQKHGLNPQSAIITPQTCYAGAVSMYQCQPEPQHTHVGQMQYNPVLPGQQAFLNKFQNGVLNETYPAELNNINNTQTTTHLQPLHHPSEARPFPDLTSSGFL
Description: Test Example 1 (Aryl Hydrocarbon Receptor Antagonist Activity)
An expression vector, hCYP1A1/pGL4.27 was introduced into HepG2 cells (derived from American Type Culture Collection (ATCC)) that were seeded in 6-well plates (#3810-006 (Iwaki)) at 1.2×10^6 cells/well, using Lipofectamine 3000 (#100022050 (Invitrogen)). Referring to Garrion P M et al., Fundam Appl Toxicol, 30, 194 (1996), the vector hCYP1A1/pGL4.27 incorporated the human CYP1A1 promotor region including dioxin responsive element (DRE) region of the AhR binding region into the XhoI-BglII restriction enzyme site of pGL4.27 (#E8451 (Promega)). After 24 hours, medium-1 was replaced, and after 48 hours, the medium-1 containing hygromycin B (200 to 1000 μg/mL) was subjected to drug treatment. Culturing using the medium containing hygromycin B was continued for about 1 month to clone 24 clones showing drug resistance. A cell line showing high reporter activity was selected (DRE-Luc HepG2) from drug resistant lines using as an indicator luciferase activity (Dual-Glo Luciferase substrate, #E297A (Promega)) relative to an AhR agonist, 2,3,7,8-tetrachlorodibenzo-p-dioxin (TCDD) (#ED-901-B (CIL.)).
DRE-Luc HepG2 cells subcultured in a 225 cm^2 flask (#11-0005 (Iwaki)) were washed with PBS (#1419-144 (Gibco), Lot: 1896207), and thereto was added 8 mL of Trypsin-EDTA (0.05%) (#25300-054 (Gibco)). Thereafter, an excessive liquid was removed from the mixture, and the cells were stood at room temperature for 5 minutes. Thereto was added 10 mL of medium-2, the cells were recovered through a cell strainer (#352350 (Falcon), 70 μm), and the number of cells were then counted using a hemocytometer. A cell suspension was prepared at 3×10^5 cells/mL, 100 μL/well of the cell suspension was seeded into a 96-well white plate (#136101, F96 Microwell (Nunc)), and the cells were then cultured in a CO2 incubator (5% CO2, 37° C.). After 24 hours, the medium was aspirated, and thereto was added 100 μL of an assay medium solution including the compound of the present invention, and the cells were cultured in the CO2 incubator (5% CO2, 37° C.). After 24 hours, 11 μL of an assay medium solution including 5×10^−10 M TCDD (#ED-901-B (CIL.)) was added thereto and the cells were cultured in the CO2 incubator (5% CO2, 37° C.). After 24 hours, 50 μL of a reaction substrate (#E253B, Steady-Glo Luciferase substrate (Promega)) for Firefly Luciferase enzyme reaction was added to each well, and after 5 minute-shaking, the light emission intensity was measured with Wallac ARVO 1420sx (PerkinElmer).

[2] = tested on: immortalized megakaryocyte line (SeV2-MKCL); test: Platelet production: static culturing of immortalized megakaryocyte line; assay type: cell-based; conditions: compound final concentration 0.1 μM, static culturing 6 to 7 days, control (DMSO) set to 1; platelets = CD41, CD42b and CD42a-positive cells
Description: Test Example 2 (Platelet Production: Static Culturing)
The immortalized megakaryocyte line (SeV2-MKCL) obtained according to the method described in WO 2016/204256 was washed twice with D-PBS(−) and then cultured in medium not containing doxycycline to terminate forced expression. Culturing was implemented by seeding the cells at 1 mL/well in a 24-well plate (#662160 (Greiner Rio-One)) at a seeding density of 1×10^5 cells/mL followed by static culturing in the medium indicated below.
The medium was obtained by adding the following components to IMDM serving as the basal medium (concentrations indicate final concentrations).
Culturing was implemented under conditions of 37° C. and 5% CO2. At the same time, the compound of the present invention (final concentration 0.1 μM) or DMSO (control) was added and cultured for 6 to 7 days. Thereafter, the number of platelets (CD41, CD42b, and CD42a-positive cells) was measured. The measurement method was as shown below. The same procedure was performed with the control.
A portion of the culture supernatant was harvested 6 to 7 days after culturing to terminate gene expression, and suspended with the following antibodies to stain them. eFluor 450-labeled anti-CD42a antibody (#48-0428-42 (eBioscience)) PE-labeled anti-CD42b antibody (#303906 (BioLegend)) APC-labeled anti-CD41 antibody (#303710 (BioLegend)) The number of platelets was counted using FACSVerse manufactured by BD 30 minutes after the stain reaction. In the measurement of the number of platelets, the number of cells was corrected using Flow-count beads (#7547053 (Beckman Coulter)).
The number of platelets produced from one megakaryocyte cell was calculated based on the number of platelets in the sample obtained by the FACS measurement, and the result was defined as platelet production efficiency (PLT/MK) and used for evaluation of drug efficacy of the compound. In addition, the specific activity at the time when the platelet production efficiency of the control was set to 1 was indicated as fold increase.

Structure (SMILES) | IC50 [1] | Static (vs veh): fold increase of platelet production efficiency (PLT/MK) [2]
CC1(C)COc2nc3c(NCCc4ccc(O)c(-c5cccc(C#N)c5F)c4)nc(-c4cncc(C#N)c4)nc3n21 [Example 67] | 2.4 nM | 2.9
Cc1cncc(-c2cc(CCNc3nc(-c4cncc(F)c4)nc4c3nc3n4[C@H](C)CS3)ccc2O)c1 [Example 74] | 4.7 nM | 3.5
CC1(C)COc2nc3c(NCCc4ccc(O)c(-c5cc(F)cc(F)c5)c4)nc(-c4cncc(F)c4)nc3n21 [Example 12] | 12 nM | 7.6
C[C@@H]1CSc2nc3c(NCCc4ccc(O)c(-c5ccccc5F)c4)nc(-c4cncc(F)c4)nc3n21 [Example 28] | 0.4 nM | 9.7
CC1(C)COc2nc3c(NCCc4ccc(O)c(-c5c(F)cccc5F)c4)nc(-c4cncc(F)c4)nc3n21 [Example 44] | 3.5 nM | 3.4
CC1(C)COc2nc3c(NCCc4ccc(O)c(-c5cccnc5)c4)nc(-c4cncc(F)c4)nc3n21 [Example 32, 4-[2-[[2-(5-fluoropyridin-3-yl)-8,8-dimethyl-7H-purino[8,9-b][1,3]oxazol-4-yl]amino]ethyl]-2-pyridin-3-ylphenol] | 29 nM | 6.8
Cc1cncc(-c2nc(NCCc3ccc(O)c(-c4cccc(F)c4)c3)c3nc4n(c3n2)C(C)(C)CS4)c1 [Example 27] | 0.35 nM | 6.0
CC1(C)C[S+]([O-])c2nc3c(NCCc4ccc(O)c(-c5ccccc5F)c4)nc(-c4cncc(F)c4)nc3n21 (stereo not shown) [Example 20] | 0.058 nM | 6.5
CC1(C)CSc2nc3c(NCCc4ccc(O)c(-c5cccc(F)c5)c4)nc(-c4cncc(F)c4)nc3n21 [Example 9] | 0.32 nM | 4.9
CC1(C)COc2nc3c(NCCc4ccc(O)c(-c5ccccc5Cl)c4)nc(-c4cncc(F)c4)nc3n21 [Example 5] | 36 nM | 5.1
C[C@H]1CSc2nc3c(NCCc4ccc(O)c(-c5ccccc5F)c4)nc(-c4cncc(F)c4)nc3n21 [Example 30] | 0.78 nM | 6.7
CC1(C)COc2nc3c(NCCc4ccc(O)c(-c5cc(F)cc(C#N)c5)c4)nc(-c4cncc(F)c4)nc3n21 [Example 56] | 13 nM | 6.5
CC1(C)COc2nc3c(NCCc4ccc(O)c(-c5cccc(F)c5)c4)nc(-c4cncc(F)c4)nc3n21 [Example 3] | 2.9 nM | 6.8
CC1(C)COc2nc3c(NCCc4ccc(O)c(-c5ccccc5)c4)nc(-c4cncc(F)c4)nc3n21 [Example 1, 4-[2-[[2-(5-fluoropyridin-3-yl)-8,8-dimethyl-7H-purino[8,9-b][1,3]oxazol-4-yl]amino]ethyl]J-2-phenylphenol] | 4.4 nM | 6.5
C[C@@H]1CSc2nc3c(NCCc4ccc(O)c(-c5cccc(C#N)c5)c4)nc(-c4cncc(C#N)c4)nc3n21 [Example 61] | 0.71 nM | 3.9
CC1(C)COc2nc3c(NCCc4c[nH]c5ccccc45)nc(-c4ccc5nccn5c4)nc3n21 [Example 110] | 40 nM | 6.1
CC1(C)COc2nc3c(NCCc4ccc(O)c(-c5cc(F)cc(C#N)c5)c4)nc(-c4cncc(C#N)c4)nc3n21 [Example 69] | 13 nM | 4.7
CC1(C)COc2nc3c(NCCc4c[nH]c5ccccc45)nc(-c4cccc(F)c4)nc3n21 [Example 85] | 27 nM | 6.1
CC1(C)CSc2nc3c(NCCc4ccc(O)c(-c5ccccc5)c4)nc(-c4cncc(C#N)c4)nc3n21 [Example 48] | 0.42 nM | 3.5
Cc1cncc(-c2nc(NCCc3ccc(O)c(-c4ccccc4F)c3)c3nc4n(c3n2)C(C)(C)CS4)c1 [Example 26] | 1 nM | 5.0
CC1(C)COc2nc3c(NCCc4ccc(O)c(-c5ccc(F)cc5)c4)nc(-c4cncc(F)c4)nc3n21 [Example 4] | 5 nM | 6.7
Cc1cncc(-c2nc(NCCc3ccc(O)c(-c4ccccc4F)c3)c3nc4n(c3n2)C(C)(C)CO4)c1 [Example 23] | 9.6 nM | 8.0
CC1(C)C[S+]([O-])c2nc3c(NCCc4ccc(O)c(-c5cccc(F)c5)c4)nc(-c4cncc(F)c4)nc3n21 (stereo not shown) [Example 21] | 0.033 nM | 4.7
CC1(C)COc2nc3c(NCCc4ccc(O)c(-c5cc(F)ccc5F)c4)nc(-c4cncc(F)c4)nc3n21 [Example 10] | 11 nM | 5.5
Cc1ccccc1-c1cc(CCNc2nc(-c3cncc(F)c3)nc3c2nc2n3C(C)(C)CO2)ccc1O [Example 40] | 40 nM | 9.8
CC1(C)COc2nc3c(NCCc4ccc(O)c(-c5cccc(C#N)c5)c4)nc(-c4ccc5nccn5c4)nc3n21 [Example 63] | 17 nM | 4.8
